The test system of one test is SW1990. Description: Antiproliferative activity against human SW1990 cells assessed as reduction in cell viability after 4 days by MTT assay. As to conditions: SW1990, 96 h. The class given is functional, cell-based. On the technique in general: Tetrazolium assays rely on reduction of a dye to a coloured formazan, in cell work by metabolically active cells.
The next test deals with MDA-MB-231. Kind of test: Antiproliferative activity against human MDA-MB-231 cells assessed as reduction in cell viability after 7 days. It is filed as functional, cell-based. As to conditions: MDA-MB-231, 168 h.
Test [1] has as its target T1, Bromodomain-containing protein 4 (Homo sapiens, UniProt O60885). Description: Inhibition of recombinant BRD4 (unknown origin) incubated for 120 mins by TR-FRET assay.
In test [2] the target is Poly [ADP-ribose] polymerase 1 (Homo sapiens, UniProt P09874). Description: Inhibition of PARP1 (unknown origin) incubated for 45 mins in presence of biotinylated-NAD+ by microplate reader analysis.
Sequence of Poly [ADP-ribose] polymerase 1 (P09874 whole entry): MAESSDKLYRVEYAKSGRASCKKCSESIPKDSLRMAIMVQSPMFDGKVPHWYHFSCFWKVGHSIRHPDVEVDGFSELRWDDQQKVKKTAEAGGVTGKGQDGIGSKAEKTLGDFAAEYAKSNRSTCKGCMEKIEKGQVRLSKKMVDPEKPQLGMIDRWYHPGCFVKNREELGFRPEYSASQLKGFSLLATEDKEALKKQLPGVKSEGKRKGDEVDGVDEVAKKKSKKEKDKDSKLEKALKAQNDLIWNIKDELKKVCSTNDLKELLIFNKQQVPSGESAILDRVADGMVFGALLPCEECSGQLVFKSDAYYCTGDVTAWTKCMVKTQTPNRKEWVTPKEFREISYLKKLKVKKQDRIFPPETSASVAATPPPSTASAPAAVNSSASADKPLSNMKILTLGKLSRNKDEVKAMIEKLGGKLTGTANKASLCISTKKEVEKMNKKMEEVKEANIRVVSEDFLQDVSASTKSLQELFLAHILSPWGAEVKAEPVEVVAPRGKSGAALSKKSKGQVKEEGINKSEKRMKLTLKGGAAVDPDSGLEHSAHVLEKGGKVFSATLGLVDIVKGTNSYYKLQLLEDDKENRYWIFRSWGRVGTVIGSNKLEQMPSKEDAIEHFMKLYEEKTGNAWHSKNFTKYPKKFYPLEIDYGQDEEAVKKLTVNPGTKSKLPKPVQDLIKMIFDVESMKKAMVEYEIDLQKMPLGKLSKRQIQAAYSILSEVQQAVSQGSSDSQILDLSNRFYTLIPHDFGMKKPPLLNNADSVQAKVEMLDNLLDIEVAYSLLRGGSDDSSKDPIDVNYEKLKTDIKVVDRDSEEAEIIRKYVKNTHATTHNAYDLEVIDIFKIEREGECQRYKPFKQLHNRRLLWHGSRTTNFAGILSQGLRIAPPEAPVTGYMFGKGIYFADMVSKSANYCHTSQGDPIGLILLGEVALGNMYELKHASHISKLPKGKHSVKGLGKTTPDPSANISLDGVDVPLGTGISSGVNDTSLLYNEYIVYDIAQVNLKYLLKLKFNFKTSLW
Test [3] concerns the target T1, Bromodomain-containing protein 4. Description: Inhibition of recombinant BRD4 (unknown origin) at 0.5 uM incubated for 120 mins by TR-FRET assay relative to control.

Structures are written as SMILES.

Regarding `CC[C@@H]1C(=O)N(C)c2cnc(Nc3ccc(-c4nc5c(C(N)=O)cccc5[nH]4)cc3OC)nc2N1C1CCCC1`, the IC50 amounted to 2120 nM in the test with SW1990, 430 nM with MDA-MB-231, 237 nM in test [1] and 150 nM in test [2].
On to `CC[C@@H]1C(=O)N(C)c2cnc(Nc3ccc(-c4nc5c(C(N)=O)cccc5[nH]4)cc3OC3CCCC3)nc2N1C1CCCC1`, for which, in test [3], the inhibition stood at 47%. The IC50 in test [2] was found to be 1820 nM.
The like results for `CC[C@@H]1C(=O)N(C)c2cnc(Nc3ccc(-c4nc5c(C(N)=O)cccc5[nH]4)cc3OC)nc2N1Cc1cccc(C(F)(F)F)c1` were, in that order, 17% and 1760 nM.
For `CC[C@@H]1C(=O)N(C)c2cnc(Nc3ccc(Cc4nc5c(C(N)=O)cccc5[nH]4)cc3OC)nc2N1C1CCCC1`, the IC50 in the test on SW1990 amounted to 3120 nM; in the test on MDA-MB-231, 810 nM; in test [1], 186 nM; in test [2], 355 nM.
As for `CC[C@@H]1C(=O)N(C)c2cnc(Nc3ccc(-c4nc5c(C(N)=O)cccc5[nH]4)cc3)nc2N1C1CCCC1`, the IC50 turned out to be 2810 nM in the test on SW1990, 830 nM in the test on MDA-MB-231, 842 nM in test [1] and 43 nM in test [2].
As for `CC[C@@H]1C(=O)N(C)c2cnc(Nc3ccc(-c4nc5c(C(N)=O)cccc5[nH]4)cc3OC)nc2N1Cc1ccc(OC)cc1OC`, in test [3], the inhibition came to 17%. In addition, the IC50 in test [2] stood at 570 nM.
`CCOc1cc(-c2nc3c(C(N)=O)cccc3[nH]2)ccc1Nc1ncc2c(n1)N(C1CCCC1)[C@H](CC)C(=O)N2C`: the IC50 turned out to be 2450 nM in the test on SW1990, 790 nM in the test on MDA-MB-231 and 306 nM in test [2]. Besides, in test [3], the inhibition was found to be 86%.
With `CC[C@@H]1C(=O)N(C)c2cnc(Nc3ccc(-c4nc5c(C(N)=O)cccc5[nH]4)cc3OC)nc2N1Cc1ccccc1`, the inhibition in test [3] turned out to be 21%. Moreover, the IC50 in test [2] came out at 461 nM.

By IC50 is commonly meant the concentration at which inhibition is half-maximal. Usually inhibition stands for the share of the control response that was lost under treatment.

Values taken from ChEMBL document CHEMBL5053549, “Discovery of Potent and Novel Dual PARP/BRD4 Inhibitors for Efficient Treatment of Pancreatic Cancer” (J Med Chem, 2021).
